Measurements reported in US20250368648A1, “MULTI-CYCLIC IRAK AND FLT3 INHIBITING COMPOUNDS AND USES THEREOF” (CHILDREN'S HOSPITAL MEDICAL CENTER, priority 2022, published 2025).
“Also recorded” adds a separate entry of the source.

Tests used:
[1] = system: MOLM14-FLT3-ITD (D835Y) AML cells; assay: Caspase-Glo 3/7 apoptosis assay, time course; format: cell-based
[2] = system: MOLM14-FLT3-ITD(D835Y) acute myeloid leukemia cells; assay: AML efficacy study in mice engrafted with MOLM14-FLT3-ITD(D835Y); format: in vivo
Procedure: Female, NSG-SGM3 (NOD.Cg-Prkdc^scid Il2^tm1Wjl Tg(CMV-IL3, CSF2, KITLG)1Eav/MloySzJ) mice were intravascularly engrafted with MOLM14-FLT3-ITD(D835Y) acute myeloid leukemia cells. Injection of leukemia cells was performed on 3/21/2022. Mice were randomized and dosing began three weeks following engraftment. […] Mice experiencing clinical signs prior to scheduled end-date, including weight loss, lethargy, hunched posture, ruffled coat, or hind limb paralysis were humanely euthanized.
Bone marrow aspirates were performed when the initial vehicle control mice became clinical, 9 days following initiation of treatment. Aspirates were centrifuged, treated with RBC lysis buffer, resuspended in 250 μL PBS, and two cytospin chamber slides were loaded with 125 μL. Cytospins were used to create two cytology slides per mouse: one for Wright-Giemsa staining and the other for huCD45 immunocytochemistry, if needed. Cytology slides were graded according to the number of leukemic cells identified per 400× field as follows: 0, none; 1, 1-5 CD45+ cells; 2, 6-10 CD45+ cells; 3, 11-15 CD45+ cells; 4, 16-30 CD45+ cells; 5, >30 CD45+ cells.
At necropsy, sections of femur, tibia, vertebra, and sternum were evaluated for the presence of leukemic cells using H&E and CD45 immunohistochemistry, if needed. Grades for long bones, vertebrae, and sternum were recorded as follows: 0, no leukemic cells; 1, <1% of cells; 2, 1-10% of cells; 3, 10-50% of bone marrow; 4, >50% of bone marrow. Sums of the individual grades were taken for each mouse (range 0 to 12).
Leukemic burden was measured in NSGS mice xenografted with MOLM14 FLT3-ITD(D835Y) and quantified using bone marrow (BM) aspirates. An initial BM aspirate, accompanied by peripheral CBC evaluation (submandibular samples), was collected at the time that clinical signs first appeared in control mice to verify AML engraftment prior to the start of drug dosing. Cytospin chambers were used to create two cytology slides per bone marrow sample. Aspirate samples were of high quality for 85% of samples. A semi-quantitative grading system was applied to each bone marrow aspirate according to the number of leukemic cells identified per 400× field as follows:
• 1: 1-5 leukemic cells (per HPF) • 2: 6-10 leukemic cells • 3: 11-15 leukemic cells • 4: 16-30 leukemic cells • 5: >30 leukemic cells
All mice had evidence of leukemia within the bone marrow aspirate. Histopathology scores we re-taken for long bones (femur and tibia), vertebrae, and sternum as follows: 0, no leukemic cells; 1, <1% of cells; 2, 1-10% of cells; 3, 10-50% of bone marrow; 4, >50% of bone marrow. Scores were totaled (range: 0 to 12) and plotted by group at necropsy. […] To incorporate survival, the bone marrow grade was divided by the time on test (FIG. 10).

hERG = hERG (Homo sapiens, UniProt Q12809); assay: Window to the hERG IC50 at the dose studied (FIG. 9B); conditions: at the dose studied (30 mg/kg, mice)
THP1 cells = assay: Combination drug screening, Cell Titer Glo, THP1 cells; conditions: FLT3 WT setting (THP1 cells), Cell Titer Glo, 48 hours;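 also: luminescence read out in 1536-well plates seeded with 500 THP1 cells per well, each drug spanning a 10-point concentration range in the combination matrix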
From the text: A smaller concentration indicates higher potency to synergize with Venetoclax. […] The numbers in each cell represent the % response (left) or the Delta Bliss score (right) at each given concentration combination.
A smaller concentration indicates higher potency to synergize with azacitidine. […] The numbers in each cell represent the % response (left) or the Delta Bliss score (right) at each given concentration combination.
(§1) This is a cell line that has the FLT3 ITD mutation but also the FLT3 D835Y kinase domain mutation. […] Excess HSA is a measure of synergy vs. additivity or antagonism, wherein a negative Excess HSA value is indicative of synergy.
Briefly, 10 nL of compounds were acoustically dispensed into 1536-well white polystyrene tissue culture-treated plates with an Echo 550 acoustic liquid handler (Labcyte). MOLM14 (D835Y) or THP1 cells were then added to compound-containing plates at a density of 500-cells/well in 5 μL of medium. A 10-point custom concentration range was used for all listed drugs. […] 48h post compound addition, 3 μL of Cell Titer Glo (Promega) were added to each well and plates were incubated at room temperature for 15 minutes with the stainless-steel lid in place. Luminescence readings were taken using a Viewlux imager (PerkinElmer) with a 2 second exposure time per plate.

MOLM14 (D835Y) cells = assay: Combination drug screening, Cell Titer Glo, MOLM14 (D835Y) cells; conditions: FLT3 mutant setting (ITD-D835Y cells), Cell Titer Glo, 48 hours;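 also: MOLM14 cells with FLT3 ITD plus D835Y, 500 per well in 1536-well plates, 10-point dose ranges, luminescent viability after 48 h, negative Excess HSA indicates synergy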
Procedure: Briefly, 10 nL of the compound shown below was acoustically dispensed into 1536-well white polystyrene tissue culture-treated plates with an Echo 550 acoustic liquid handler (Labcyte). Cells were then added to compound-containing plate at a density of 500-cells/well in 5 μL of medium. A 6-point or 10-point custom concentration range was used for all listed drugs. Plates were incubated for 48 hours at standard incubator conditions covered by a stainless steel gasketed lid to prevent evaporation. 48h post compound addition, 3 μL of Cell Titer Glo (Promega) were added to each well and plates were incubated at room temperature for 15 minutes with the stainless-steel lid in place. Luminescence readings were taken using a Viewlux imager (PerkinElmer) with a 2 second exposure time per plate.
A smaller concentration indicates higher potency to synergize with Venetoclax.
A smaller concentration indicates higher potency to synergize with azacitidine.
as §1

hERG, sequence (Q12809 whole entry): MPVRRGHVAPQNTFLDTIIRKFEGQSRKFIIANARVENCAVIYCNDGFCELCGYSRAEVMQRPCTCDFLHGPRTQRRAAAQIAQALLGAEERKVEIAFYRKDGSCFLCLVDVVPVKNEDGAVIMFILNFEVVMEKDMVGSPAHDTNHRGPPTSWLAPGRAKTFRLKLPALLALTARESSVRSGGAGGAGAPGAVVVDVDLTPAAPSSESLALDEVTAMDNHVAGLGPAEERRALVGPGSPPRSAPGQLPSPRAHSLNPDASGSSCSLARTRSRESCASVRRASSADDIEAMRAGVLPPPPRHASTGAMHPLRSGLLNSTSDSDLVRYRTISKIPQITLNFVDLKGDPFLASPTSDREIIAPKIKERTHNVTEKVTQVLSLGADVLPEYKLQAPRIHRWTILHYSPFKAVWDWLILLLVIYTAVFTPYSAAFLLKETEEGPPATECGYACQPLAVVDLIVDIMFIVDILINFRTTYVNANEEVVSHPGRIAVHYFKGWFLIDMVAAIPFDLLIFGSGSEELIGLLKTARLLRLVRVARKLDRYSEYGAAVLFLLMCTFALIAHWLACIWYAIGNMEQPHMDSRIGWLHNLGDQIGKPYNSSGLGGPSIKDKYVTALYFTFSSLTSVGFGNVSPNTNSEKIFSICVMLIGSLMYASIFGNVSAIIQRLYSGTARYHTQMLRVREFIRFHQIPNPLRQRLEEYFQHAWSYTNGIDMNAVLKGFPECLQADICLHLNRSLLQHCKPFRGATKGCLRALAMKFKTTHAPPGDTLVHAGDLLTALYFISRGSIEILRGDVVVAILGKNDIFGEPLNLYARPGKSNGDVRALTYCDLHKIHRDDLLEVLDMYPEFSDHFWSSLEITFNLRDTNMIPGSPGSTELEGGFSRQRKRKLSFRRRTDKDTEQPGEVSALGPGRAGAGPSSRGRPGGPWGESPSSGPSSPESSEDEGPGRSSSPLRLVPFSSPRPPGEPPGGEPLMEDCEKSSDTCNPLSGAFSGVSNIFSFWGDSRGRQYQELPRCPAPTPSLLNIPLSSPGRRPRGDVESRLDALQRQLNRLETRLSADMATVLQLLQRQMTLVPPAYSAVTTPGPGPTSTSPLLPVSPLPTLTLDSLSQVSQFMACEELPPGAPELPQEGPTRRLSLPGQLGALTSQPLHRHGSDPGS

SMILES: COc1cc2ncc(-c3nc(N[C@@H]4CCCNC4)c(F)cc3F)n2nc1C1CC1 [Compound 106, (R)-6-(6-cyclopropyl-7-methoxyimidazo[1,2-b]pyridazin-3-yl)-3,5-difluoro-N-(piperidin-3-yl)pyridin-2-amine]
- combination activity with venetoclax (apoptosis induction) ([1]; dose level 6: gilteritinib 25 nM or Compound 106 12 nM with venetoclax 25 nM): much stronger than any of the other drug combinations
- combination activity with venetoclax (apoptosis induction over 24 hours) ([1]; dose level 7: 4 nM of Compound 106 and 8 nM of venetoclax): high activity
- cells entering apoptosis, combination with venetoclax ([1]; dose level 7: 4 nM of Compound 106 and 8 nM of venetoclax, four hours): about half of the cells enter into apoptosis in four hours
- combination activity with venetoclax (apoptosis induction over 24 hours) ([1]; dose level 8: 1.37 nM of Compound 106 and 2.7 nM of venetoclax): high activity
- cells stimulated to apoptosis ([1]; single agent, 1.37 nM, 12 hours of coverage): about 30%
- time at which apoptosis starts, single agent ([1]; single agent, even at the lowest dose of 1.37 nM, Caspase-Glo 3/7): ≤ 12 h
- survival ([2]; 30 mg/kg orally once/day M-F, 90 days, NSG-SGM3 mice): Significant survival differences; also recorded: enhanced survival in mice compared to gilteritinib and CA-4948 (emavusertib); also recorded: improved survival compared to those treated with gilteritinib or emavusertib (CA-4948)
- plasma levels (Cmax and AUC) against comparators ([2]; 30 mg/kg, mice, FIG. 9B): not due to higher plasma levels vs. gilteritinib or emavusertib
- survival-adjusted leukemic burden (bone marrow grade divided by time on test) ([2]; 90 day study, 30 mg/kg): decreased scores compared to standard of care F02 (Gilteritinib); also recorded: superior in reducing survival-adjusted leukemic burden
- survival persisting after withdrawal of the compound ([2]; after 90 days of treatment at 30 mg/kg, study then ended): 7 days
- bone marrow grades (leukemic burden) at necropsy ([2]; sum of histopathology scores of long bones, vertebrae, sternum (range 0 to 12)): Decreased bone marrow grades
- window to the hERG IC50 (hERG): larger window to the hERG IC50 than does emavusertib (CA-4948)
- synergy with venetoclax or azacitidine (THP1 cells): considerably more potent as a synergistic agent than either Gilteritinib or emavusertib (CA-4948)
- synergy with venetoclax or azacitidine (MOLM14 (D835Y) cells): considerably more potent as a synergistic agent than either Gilteritinib or emavusertib (CA-4948)
